Measurements published in US8198317B2, “Methylenedioxy phenolic compounds and their use to treat disease” (The Ohio State University Research Foundation, priority 2008, dated 2012).
“Also recorded” adds a separate entry of the source.

How the values were obtained:
Type in all cases: in vivo, rabbit
[1] = test system: New Zealand White rabbits; assay: Plasma lipid profile in NZW rabbits; details: end of treatment
Description: (§1) Animal Model: 15 male New Zealand White rabbits (Charles River, Mass.) were fed with high fat diet (HFD) (Harlan Teklad rabbit diet with 0.5% cholesterol, TD 87251). After 4 weeks of high fat diet, rabbits were randomized into three different treatment groups, normal control (n=5), lipoic acid (100 mg/kg/day) (n=5), INV 70-65 (100 mg/kg/day) (n=5). These drugs were administered to the animals via their chow by mixing the drugs with the high fat diet. A fixed amount of chow and drugs admixed in the chow were fed to all animals every day after carefully calculating food intake in each rabbit. Drugs were dissolved in 100% ethanol and sprayed onto the diet and kept under vacuum to let ethanol evaporate overnight. Two (2) weeks after drug or control admixed HFD, all rabbits underwent aortic balloon denudation surgeries followed by 12 weeks of continued administration of drug or controls admixed with HFD. FIG. 29 provides an outline of the experimental design.
A lipid profile (Cholesterol, Triglycerides, direct HDL, LDL and VLDL) was performed after a total of 12 weeks of treatment with the drugs. One (1) ml of blood from the ear lobe vein was placed into tubes containing K EDTA at the beginning of the high cholesterol diet and again at the time of sacrifice. All values were expressed as mean±SD. The bar graph of each group both at the baseline and the end point measurement is presented. The statistical analysis was done with one way ANOVA.

[2] = test system: New Zealand White rabbits; assay: Oil Red O staining of abdominal aorta of NZW rabbits; details: NZW abdominal aorta
Description: as §1
Hypercholesterolemia and oxidative stress play an important role in the development of atherosclerosis. The rabbits were sacrificed and abdominal aortas were fixed in 4% PFA (paraformaldehyde). The lipid deposition in the aortic wall was then visualized by oil red staining.

[3] = test system: New Zealand White rabbits; assay: MRI assessment of atherosclerosis in balloon denuded NZW rabbits; details: high fat diet, 100 mg/kg/day, 12 weeks
Description: as §1
MRI experiments were conducted at two time points: 1 week and 12 weeks after the balloon denudation procedure (FIG. 29). […] MR images were analyzed using a Siemens Leonardo Workstation (Siemens Healthcare Inc. Germany).
To assess the different rates of atherosclerosis plaque progression for each rabbit group, the aortic wall was identified in the pre-contrast images at both MRI time points. […] To account for the variable number of slices, for each rabbit a normalized aortic wall volume was calculated.
To assess plaque neovasculature progression in the different treatment groups, only the 12 weeks post balloon denudation MR images were used. […] The signal to noise ratio (SNR) for each slice was calculated as the mean signal obtained from the vessel wall divided by the standard deviation of the noise from a region outside the body. A ratio of the SNR enhancement for each rabbit was obtained by dividing the post and pre contrast calculated SNRs.

[4] = test system: thoracic aorta of New Zealand White rabbits; assay: Myograph experiments on thoracic aortic rings of NZW rabbits; details: NZW thoracic aorta, end of 12 weeks
Description: as §1
Rabbits were euthanized by injection of lethal doses of pentobarbital. The thoracic aortas were collected for the myograph studies. Two (2) mm thoracic aortic rings were suspended in individual organ chambers filled with physiological salt solution buffer (sodium chloride, 130 mEq/L; potassium chloride, 4.7 mEq/L; calcium dichloride, 1.6 mEq/L; magnesium sulfate, 1.17 mEq/L; potassium diphosphate, 1.18 mEq/L; sodium bicarbonate, 14.9 mEq/L; EDTA, 0.026 mEq/L; and glucose, 99.1 mg/dL [5.5 mmol/L]; pH, 7.4), aerated continuously with 5% carbon dioxide in oxygen at 37° C. Vessels were allowed to equilibrate for at least 1 hour at a resting tension of 30 mN before being subjected to graded doses of agonists. The vasoconstrictor agonist phenylephrine (PE) was used and responses were expressed as a percentage of the peak response to 120 mEq/L of potassium chloride. The vessels subjected to PE were washed thoroughly and allowed to equilibrate for 1 hour before beginning experiments with acetylcholine or sodium nitroprusside (SNP). […] Results for the vasodilators were expressed as a percentage of pre-contraction by PE (0.1 μM).

O=C(O)CCCC[C@@H]1CCSS1 (racemic) [Lipoic Acid, lipoic acid, reference compound]
HDL levels [1]: increased moderately | LDL level compared to normal control [1]: moderate decreases; also recorded: lower | TC level compared to normal control [1]: moderate decreases | VLDL levels compared to controls [1]: no change | triglyceride (TG) levels compared to controls [1]: significantly decreased | lipid content in the plaque area (Oil Red O) compared to the control group [2]: reduction | plaque burden by MRI [3]: no difference | Ach LogEC50 [4]: −6.47 ± 0.18 M | PE LogEC50 [4]: −6.48 ± 0.09 M | SNP-1 LogEC50 [4]: −6.75 ± 0.21 M | PE Maximum Effect ([4]; % of peak response to KCl): 154.0 ± 7.24% | Ach Maximum Effect ([4]; % of pre-contraction by PE): −33.00 ± 2.94 % | Insulin Maximum Effect ([4]; % of pre-contraction by PE): −107.8 ± 7.68% | SNP-1 Maximum Effect ([4]; % of pre-contraction by PE): −89.04 ± 7.67%
